Reference: patent publication US20100092443A1, “NOVEL COMBINATIONS OF NITROGENATED HETEROCYCLIC ANTIBACTERIAL COMPOUNDS WITH OTHER ANTIBACTERIAL COMPOUNDS AND THE USE OF SAME AS DRUGS” (priority 2008, published 2010)
Read-outs that look alike come from different tables or passages of the source.

What was measured:
Format in all cases: cell-based
[1] = test system: Pseudomonas aeruginosa; assay: MIC, dilutions in liquid medium, alone and combined with NXL105; details: Pseudomonas aeruginosa
Procedure: (§1) In vitro activity, method of dilutions in liquid medium:
A series of test 96-well microtiter plates are prepared in which the same quantity of sterile nutritive medium is distributed. Increasing quantities of the compound to be studied, namely the antibacterial compound alone and the inventive combination with the compound of formula (I) of example 1, are distributed in each plate in the respective proportions 2:1 and 4:1, and then each plate is inoculated with a bacterial strain of Pseudomonas aeruginosa. After 24 h of incubation in a 37° C. oven, growth inhibition is evaluated by transillumination, which makes it possible to determine the minimum inhibitory concentrations (MICS) expressed in μg/ml.

[2] = test system: E. coli; assay: microbe, parasite or virus in culture; details: Escherichia coli
Procedure: as §1
(§2) A series of test 96-well microtiter plates are prepared in which the same quantity of sterile nutritive medium is distributed. […] After 24 h of incubation in a 37° C. oven, growth inhibition is evaluated by transillumination, which makes it possible to determine the minimum inhibitory concentrations (MICS) expressed in μg/ml.

[3] = test system: E. cloacae; assay: MIC, dilutions in liquid medium, alone and combined with NXL105; details: Enterobacter cloacae, read-out: MIC
Procedure: as §1, §2

[4] = test system: K. pneumoniae; assay: as above; details: Klebsiella pneumoniae, read-out: MIC
Procedure: as §1, §2

[5] = test system: K. oxytoca; assay: as above; details: Klebsiella oxytoca, read-out: MIC
[6] = test system: C. freundii; assay: as above; details: Citrobacter freundii, read-out: MIC
[7] = test system: E. aerogenes; assay: as above; details: Klebsiella aerogenes, 24 h; E. aerogenes EAR2; Case-R + FEP-R; read-out: MIC

Measured: MIC

CC(C)(O/N=C(\C(=O)N[C@@H]1C(=O)N2C(C(=O)[O-])=C(C[n+]3ccccc3)CS[C@H]12)c1csc(N)n1)C(=O)O [Ceftazidime]
> 32 µg/mL: [1]; P. aeruginosa 391HG2 | [1]; P. aeruginosa 391HG21 | [1]; P. aeruginosa 391HG38 | [1]; P. aeruginosa 391HG58 | [1]; P. aeruginosa 391HG158 | [1]; P. aeruginosa 391HG271 | [1]; P. aeruginosa 391HG329 | [1]; P. aeruginosa 391KB9 | [1]; P. aeruginosa 391KB21 | [1]; P. aeruginosa 391KB38 | [1]; P. aeruginosa 391KB62 | [1]; P. aeruginosa 391KB68 | [1]; P. aeruginosa 391KB90 | [1]; P. aeruginosa 391KB91 | [1]; P. aeruginosa 391KB99 | [1]; P. aeruginosa 391KB105 | [1]; P. aeruginosa 391KB107 | [1]; P. aeruginosa 391KB114 | [1]; P. aeruginosa 391KB127 | [1]; P. aeruginosa 391KB135 | [1]; P. aeruginosa 391KB136 | [1]; P. aeruginosa 391KB137 | [1]; P. aeruginosa 391KB138 | [1]; P. aeruginosa 391KB139 | [1]; P. aeruginosa 391KB141 | [1]; P. aeruginosa 391KB142 | [1]; P. aeruginosa 391KB143 | [1]; P. aeruginosa 391KB144 | [1]; P. aeruginosa 391QBR2 | [1]; P. aeruginosa 391QBR3 | [1]; P. aeruginosa 391QBR4 | [1]; P. aeruginosa 391QBR5 | [1]; P. aeruginosa 391QBR7 | [1]; P. aeruginosa 391QBR8 | [1]; P. aeruginosa 391QBR9 | [1]; P. aeruginosa 391QBR10 | [1]; P. aeruginosa C3719 | [2]; 24 h, E. coli 2138, KPC-2 + TEM-1 | [2]; 24 h, E. coli (no alias), CTX-M-15 + TEM-1 + OXA-1 | [2]; 24 h, E. coli IND, VEB-1 + CMY-2 | [2]; 24 h, E. coli TN13, CTX-M-14 + CMY-2 + TEM-1 | [2]; 24 h, E. coli Tunisie clone E4, CTX-M-16 + TEM-1 | [2]; E. coli (no alias), Cephalosporinase, read-out: MIC | [2]; E. coli (no alias), SHV-4 | [3]; 24 h, E. cloacae 7506, KPC-2 + TEM-1 + KLUC-2 | [3]; E. cloacae (no alias), AmpC | [4]; 24 h, K. pneumoniae 60, SHV-2 + TEM-2 + PER | [4]; 24 h, K. pneumoniae 157, SHV-5 + TEM-26 | [4]; 24 h, K. pneumoniae 181, SHV-5 + TEM-10 | [4]; 24 h, K. pneumoniae 236, SHV-5 + TEM-10 | [4]; 24 h, K. pneumoniae 238, SHV-2 + TEM-12 + CTX-M-2 | [4]; 24 h, K. pneumoniae 243, SHV-5 + TEM-63 | [4]; 24 h, K. pneumoniae 253, SHV-2 + TEM-12 + CTX-M-2 | [4]; 24 h, K. pneumoniae 427, SHV-1 + TEM-1B + CTX-M-3 | [4]; 24 h, K. pneumoniae 441, SHV-1 + TEM-2 + PER | [4]; 24 h, K. pneumoniae 444, SHV-5 + TEM-2 + PER | [4]; 24 h, K. pneumoniae 449, SHV-1 + TEM-2 + PER | [4]; 24 h, K. pneumoniae 465, TEM-1B + CTX-M-2 | [4]; 24 h, K. pneumoniae 1734, FOX-3 + TEM-1 | [4]; 24 h, K. pneumoniae 9701, CMY-4 + TEM-1 | [4]; 24 h, K. pneumoniae KOL, MOX-2 + SHV-5 + TEM-1 | [4]; 24 h, K. pneumoniae Patient 1BHR, VIM-4 + CTX-M-15 = CMY-4 + TEM-1 | [4]; 24 h, K. pneumoniae Patient F, VIM-1 + SHV-5 | [4]; 24 h, K. pneumoniae SLK54, ACC-1 + TEM-1 | [4]; 24 h, K. pneumoniae TN58467, DHA-1 + SHV-2a + TEM-1 | [4]; 24 h, K. pneumoniae Tunisie clone K1, CTX-M-16 + OXA-1 | [4]; 24 h, K. pneumoniae Tunisie clone K4, CTX-M-15 + TEM-1 + OXA-1 | [4]; ATCC700603, K. pneumoniae ATCC 700603, SHV-18 | [4]; K. pneumoniae 26, SHV-5 | [4]; K. pneumoniae CL5761, KPC-3 | [4]; K. pneumoniae CL5762, KPC-3 | [4]; K. pneumoniae CL5763, KPC-3 | [4]; K. pneumoniae VA8, KPC-3 | [4]; K. pneumoniae VAKP, KPC-2 | [4]; K. pneumoniae YC, KPC-2 | [5]; K. oxytoca 1431, TEM-129 | [5]; K. oxytoca 16944, OXY-2, TEM-1 | [6]; 24 h, C. freundii (no alias), AmpC + TEM-1 | [6]; C. freundii (no alias, table row r121), AmpC | [6]; C. freundii (no alias, table row r122), AmpC | [6]; C. freundii (no alias, table row r123), AmpC | [7]
16 µg/mL: [1]; P. aeruginosa 391K1523 | [1]; P. aeruginosa 391KB140 | [2]; 24 h, E. coli TN06, CTX-M-2 + TEM-1 | [6]; C. freundii (no alias, table row r125), AmpC
0.5 µg/mL: [1]; ATCC27853, P. aeruginosa ATCC 27853
4 µg/mL: [1]; P. aeruginosa 391HG118
1 µg/mL: [1]; P. aeruginosa 391HG39
32 µg/mL: [1]; P. aeruginosa 391HG123 | [1]; P. aeruginosa 391K1455 | [1]; P. aeruginosa 391K1525 | [1]; P. aeruginosa 391K1536 | [1]; P. aeruginosa 391K2376 | [1]; P. aeruginosa 391K2379 | [1]; P. aeruginosa 391K2415 | [1]; P. aeruginosa 391KB14 | [1]; P. aeruginosa 391KB33 | [1]; P. aeruginosa 391KB103 | [1]; P. aeruginosa 391KB106 | [2]; E. coli (no alias), TEM-3 | [3]; E. cloacae, AmpC | [4]; K. pneumoniae KP04, CTX-M-14
